We go through 18 compounds from ChEMBL document CHEMBL6134894, “Medoxomil Prodrug Strategies” (J Med Chem, 2025).

SMILES strings stand for the structures. Where only a bound is given, the exact number is not on record here.

The test system of series [1] is Human immunodeficiency virus 1. The series is described as follows: Antiviral activity against HIV-1 infected in human MT4 cells assessed as inhibition of viral growth. Type of series: functional, organism-based. Conditions: Human immunodeficiency virus 1, MT4.
The nature of series [2]: Oral bioavailability in Beagle dog. Conditions: in vivo. Type of series: ADME, organism-based, Canis lupus familiaris.
A short description of series [3]: Permeability across apical to basolateral side in human Caco-2 cells. Type of series: ADME, cell-based. Conditions: read-out: permeability.
Series [4] can be described thus: Oral bioavailability in rat. Type of series: ADME, organism-based. Conditions: in vivo.
Series [5] in a line: Oral bioavailability in Sprague-Dawley rat at 10 mg/kg measured for 24 hrs by LC-MS/MS analysis. Conditions: in vivo. Type of series: ADME, organism-based.
The nature of series [6]: Oral bioavailability in Sprague-Dawley rat. Type of series: ADME, organism-based. Conditions: in vivo.
The nature of series [7]: Half life in Wistar rat at 20 mg/kg, po by LC-MS/MS analysis. Type of series: ADME, organism-based. Conditions: in vivo.
Series [8] in a line: AUC in human at 20 mg/kg, po by LC-MS/MS analysis. Type of series: ADME, organism-based. Conditions: in vivo.
Series [9] can be described thus: Cmax in human at 20 mg/kg, po by LC-MS/MS analysis. Conditions: in vivo. Type of series: ADME, organism-based.
Series [10] is described as follows: Water solubility of the compound at pH 7.4 by HPLC analysis. Type of series: physicochemical.
A short description of series [11]: Inhibition of ADP-induced platelet aggregation in New Zealand White rabbit. Type of series: functional, Oryctolagus cuniculus.
Series [12] is described as follows: Oral bioavailability in dog at 0.03 mg/kg. Conditions: in vivo. Type of series: ADME, organism-based, Canis lupus familiaris.
The nature of series [13]: Lipophilicity, logP of the compound. Type of series: physicochemical. Conditions: octanol/water.
A short description of series [14]: Toxicity in Wistar rat assessed as effective dose. Conditions: in vivo, 6 h.

In the case of `Cc1oc(=O)oc1COP(=O)(O)COCCn1cnc2c(N)ncnc21`, the EC50 (as a rule, the concentration that produces a half-maximal response) in [1] was 10.6 µM. With `C[C@](N)(Cc1ccc(O)c(O)c1)C(=O)O` [METHYLDOPA], in series [2], the bioavailability – broadly, dose-corrected exposure relative to a reference, in per cent – was found to be 94.2%. For `CCOc1nc2cccc(C(=O)O)c2n1Cc1ccc(-c2ccccc2-c2noc(=O)[nH]2)cc1` [AZILSARTAN], the Papp A→B in series [3] was 0.636 ×10⁻⁶ cm/s. In [4], `COC(=O)N[C@H](C(=O)N[C@@H](Cc1ccccc1)[C@@H](O)CN(Cc1ccc(-c2ccccn2)cc1)NC(=O)[C@@H](NC(=O)OC)C(C)(C)C)C(C)(C)C` [ATAZANAVIR] registered an F of 1%. This compound yielded a bioavailability in series [5] of 20%. With `C=C(c1ccc(C(=O)O)cc1)c1cc2c(cc1C)C(C)(C)CCC2(C)C` [BEXAROTENE], in [6], the bioavailability was determined as 75%. Consider `CCCc1nc(C(C)(C)O)c(C(=O)O)n1Cc1ccc(-c2ccccc2-c2nnn[nH]2)cc1` [OLMESARTAN], for which the half-life – broadly, the time in which the quantity being followed falls by half – in [7] was 30 min. In the case of `CC1Sc2c(C(=O)O)c(=O)c3cc(F)c(N4CCNCC4)cc3n21` (stereo unspecified) [ULIFLOXACIN], the AUC (usually concentration integrated over time) in [8] was 22200 ng·h/mL. Besides, the peak level in series [9] (Cmax) was 630 ng/mL.

With `Nc1ncnc2c1ncn2CCOCP(=O)(O)O` [ADEFOVIR], in series [1], the EC50 amounted to 10.4 µM. For `Cc1oc(=O)oc1COC(=O)[C@@](C)(N)Cc1ccc(O)c(O)c1`, the bioavailability in series [2] was determined as 92.1%. In turn, `C=C(c1ccc(C(=O)OCc2oc(=O)oc2C)cc1)c1cc2c(cc1C)C(C)(C)CCC2(C)C` registered a bioavailability in series [6] of 12%. In series [6], `C=C(c1ccc(C(=O)OCC)cc1)c1cc2c(cc1C)C(C)(C)CCC2(C)C` registered a bioavailability of 35%. For the compound `Cc1oc(=O)oc1COC(=O)N1CC[C@@H](N2CC/C(=C\C3=C(C(=O)O)N4C(=O)[C@@H](NC(=O)/C(=N\O)c5nsc(N)n5)[C@H]4SC3)C2=O)C1`, the solubility – broadly, how much of the substance goes into solution per volume – in series [10] was greater than 200 µg/mL. For `Cc1oc(=O)oc1COC(=O)N1CCC(CC[C@@H]2CCCN(CC(=O)N[C@H](C)CC(=O)O)C2=O)CC1`, in series [11], the “inhibition (INH)” value is 100%. The bioavailability in series [12] was determined as 23%. Take `Nc1nc2[nH]cc(CCc3ccc(C(=O)N[C@@H](CCC(=O)O)C(=O)O)cc3)c2c(=O)[nH]1` [PEMETREXED]: the logP (commonly a log measure of how a compound divides between an organic and an aqueous phase) in series [13] is 0.75.

For the compound `CCCCc1nc(Cl)c(C(=O)O)n1Cc1ccc(-c2ccccc2-c2nn[nH]n2)cc1` [CARBOXYLIC ACID METABOLITE], the ED50 (usually the dose at which the effect has come halfway, by size or by number of responders) in series [14] was found to be 9.05 µg/kg.

Regarding `Cc1oc(=O)oc1COC(=O)CC[C@H](NC(=O)c1ccc(CCc2c[nH]c3[nH]c(N)nc(=O)c23)cc1)C(=O)OCc1oc(=O)oc1C`, the logP in series [13] (read-out: logP) was found to be 2.64. `CCOc1nc2cccc(C(=O)OCc3oc(=O)oc3C)c2n1Cc1ccc(-c2ccccc2-c2noc(=O)[nH]2)cc1` [AZILSARTAN MEDOXOMIL]: in series [3], the Papp A→B was determined as 2.8 ×10⁻⁶ cm/s. Regarding `Cc1oc(=O)oc1COC(=O)CC[C@H](NC(=O)c1ccc(CCc2c[nH]c3[nH]c(N)nc(=O)c23)cc1)C(=O)O`, the logP in series [13] (read-out: logP) turned out to be 1.72.
